Tests used:
[1] = system: healthy male participants; test: Subjective effects, VESSPA-SSE, methylone trial; type: in vivo, humans; conditions: 150 or 200 mg oral
Procedure: Methylone pharmacology was evaluated in a study designed as a randomized, double-blind, placebo-controlled, crossover clinical trial. Four pilot studies were conducted administering methylone at oral doses of 50 (n = 3), 100 (n = 6), 150 (n = 5), and 200 mg (n = 7). Participants attended 3 experimental sessions separated by a one-week wash-out period and received two doses of methylone (one dose per experimental session) compared to placebo, except in the last pilot study in which participants received one dose of methylone, compared to MDMA and placebo. However, in this manuscript, only the results corresponding to the highest methylone doses (n = 12; 150 and 200 mg; mean dose = 179.2 mg) are presented, to enable comparison with clephedrone self-administration. Participants were recruited by word of mouth in the volunteer database of the clinical pharmacology unit.
Methylone hydrochloride of high purity in powder form was acquired from LGC Standards (Teddington, UK) for the controlled study. The Pharmacy Department of the Hospital Universitari Germans Trias i Pujol was responsible for manufacturing, storing, and dispensing identical and opaque soft gelatin capsules containing 50 mg of methylone or a placebo (maltodextrin). Treatment consisted of 5 capsules that combined methylone and/or a placebo to reach the target dose. Details can be found in the previous article.
Subjective effects were evaluated with visual analog scales (VAS), the short form of the Addiction Research Center Inventory (ARCI), and the Evaluation of Subjective Effects of Substances with Abuse Potential questionnaire (VESSPA-SSE). In addition, the Sensitivity to Drug Reinforcement Questionnaire (SDRQ) and a pharmacological identification class questionnaire were used in the controlled study administering methylone.
The VESSPA-SSE questionnaire, used to evaluate the subjective effects of stimulant drugs, The questionnaire includes 36-items and consists of six subscales that measure sedation (S), psychosomatic anxiety (ANX), changes in perception (CP), pleasure and sociability (SOC), activity and energy (ACT), and psychotic symptoms (PS).
Participants included in the naturalistic clephedrone study completed VAS at baseline, 0.50, 1, 1.5, 2, 3, 4, and 5 h, and ARCI and VESSPA at baseline, 1, 2, 3, 4, and 5 h after self-administering clephedrone. In the controlled study, VAS was performed at baseline and 0.25, 0.50, 0.75, 1, 1.5, 2, 3, 4, 6, 8, 10, and 24 h, and ARCI and VESSPA at baseline and 1, 2, 3, 4, 6, 8, and 10 h after administering methylone. Participants completed SDRQ and VAS sexual desire and arousal at baseline, 1 and 10 h, and the pharmacological class identification questionnaire at 8 h.
For statistical analysis, values of physiological (SBP, DBP, HR, and T) and subjective effects (VAS, ARCI, and VESSPA-SSE) were baseline–adjusted. Maximum effects (Emax) and the time needed to reach maximum effects (Tmax) were determined, and the area under the curve up to 5 h (AUC0–5h) for clephedrone and up to 6 h (AUC0–6h) for methylone was calculated using the trapezoidal rule. Emax and AUC values are presented as mean ± standard deviation, whereas Tmax is presented in median (range).
To find possible significant changes through the time course compared to baseline, a Dunnett multiple comparison test was carried out to compare each time point with baseline in both drug conditions. For clephedrone the comparisons were 0–0.5 h, 0–1 h, 0–1.5 h, 0–2 h, 0–3 h, 0–4 h and 0–5 h, and for methylone this analysis included 0–0.25 h, 0–0.5 h, 0–0.75 h, 0–1 h, 0–1.5 h, 0–2 h, 0–3 h, 0–4 h and 0–6 h. Given their different study designs, no comparative analysis between the time courses of both synthetic cathinones was conducted.

[2] = system: humans; conditions: cited from earlier work

CNC(C)C(=O)c1ccc2c(c1)OCO2 (centres unmarked) [Methylone, 3,4-methylenedioxy-N-methylcathinone]
Tmax of VESSPA subscales [1]: 1 h
VESSPA ANX (psychosomatic anxiety) Emax ([1]; n=12): 0.92 ± 0.51 points
VESSPA CP (changes in perception) Emax ([1]; n=12): 0.00 ± 0.00 points
VESSPA CP (changes in perception) Tmax ([1]; n=12): 0.0 (0.0–0.0) h
VESSPA S (sedation) Emax ([1]; n=12): 0.56 ± 0.59 points
VESSPA SOC (pleasure and sociability) Emax ([1]; n=12): 1.24 ± 1.56 points
VESSPA-ACT (activity and energy) Emax ([1]; n=12): 0.82 ± 0.84 points
VESSPA-PS (psychotic symptoms) Emax ([1]; n=12): 0.06 ± 0.11 points
VESSPA SOC (pleasure and sociability) Emax ([1]; n=12, listed as methylone): higher than 1 points
VESSPA ANX (psychosomatic anxiety) AUC0-5/6 h ([1]; AUC0–6h, n=12): 2.51 ± 2.22 points·h
VESSPA CP (changes in perception) AUC0-5/6 h ([1]; AUC0–6h, n=12): 0.00 ± 0.00 points·h
VESSPA S (sedation) AUC0-5/6 h ([1]; AUC0–6h, n=12): 1.39 ± 1.96 points·h
VESSPA SOC (pleasure and sociability) AUC0-5/6 h ([1]; AUC0–6h, n=12): 1.63 ± 2.13 points·h
VESSPA-ACT (activity and energy) AUC0-5/6 h ([1]; AUC0–6h, n=12): 1.02 ± 1.08 points·h
VESSPA-PS (psychotic symptoms) AUC0-5/6 h ([1]; AUC0–6h, n=12): 0.10 ± 0.24 points·h
Persistence of heart rate increases ([2]; naturalistic and controlled environments): 8 to 10 h
Time of peak effects following self-administration ([2]; naturalistic conditions): 2 h
